Experimental data: patent US8993527B2, “Methods, compositions, and formulations for preventing or reducing adverse effects in a patient” (Pericor Therapeutics, Inc., priority 2005, dated 2015)
Counter-ions that a name gives are not always drawn.

Key:
AMP deaminase = assay: Inhibition of AMP deaminase (14C-AMP to 14C-IMP); assay type: biochemical, human; conditions: 200 μM of each ribotide
Description: The phosphorylated forms are referred to as AICA ribotide and ribavirin monophosphate, respectively. Using 200 μM of each ribotide, AMP deaminase was inhibited 38% and 54%, respectively.

[1] = target: T1, calf intestinal musosa adenosine deaminase (Bos taurus, UniProt P56658); assay: Adenosine deaminase activity; assay type: biochemical; conditions: 80 μM adenosine, 10 minutes at 37° C.
T1 construct: 0.002 units of calf intestinal musosa adenosine deaminase; from tissue; host or cells: calf intestinal mucosa
Description: Different concentrations of the test compounds were incubated in the assay mixture for 10 minutes at 37° C. The reaction was monitored continuously for oxidation of NADH from the change in absorbance at 340 nm.

[2] = system: longitudinal muscle from the guinea pig ileum; assay: Inhibition of stimulated contraction in isolated ileum; conditions: electrically stimulated guinea pig ileum muscle
Source text: These are detailed in Table II.

ischemic rat hearts = assay: Rat heart ischemia model: tissue adenosine levels; assay type: in vivo
Description: Male rats were injected intraperitonealy with either the AICA riboside analog, AICA riboside or saline, as a control. After 60 minutes, the hearts were excised and incubated at 37° C. for a further 60 minutes. Tissue extracts were prepared and analyzed for adenosine by high performance liquid chromatography (HPLC).

brain ischemia = assay: Gerbil stroke model: hippocampal pyramidal cell survival; assay type: in vivo; conditions: pretreatment with 500 mg/kg (FIG. 21)
Description: Ischemia was then induced by bilateral occlusion of both common carotid arteries for 5 minutes. Seven days following the ischemic insult, brains were removed and processed for histology.

[3] = target: T2, NBTI-specific adenosine transport site (UniProt O54698); assay: [3H]-NBTI binding assay; conditions: read-out: ED50 (50% displacement of bound [3H]-NBTI); 0.5 mg neuronal membrane protein, 0.5 nM [3H]-NBTI, 30 minutes
T2 sequence (O54698 1-457): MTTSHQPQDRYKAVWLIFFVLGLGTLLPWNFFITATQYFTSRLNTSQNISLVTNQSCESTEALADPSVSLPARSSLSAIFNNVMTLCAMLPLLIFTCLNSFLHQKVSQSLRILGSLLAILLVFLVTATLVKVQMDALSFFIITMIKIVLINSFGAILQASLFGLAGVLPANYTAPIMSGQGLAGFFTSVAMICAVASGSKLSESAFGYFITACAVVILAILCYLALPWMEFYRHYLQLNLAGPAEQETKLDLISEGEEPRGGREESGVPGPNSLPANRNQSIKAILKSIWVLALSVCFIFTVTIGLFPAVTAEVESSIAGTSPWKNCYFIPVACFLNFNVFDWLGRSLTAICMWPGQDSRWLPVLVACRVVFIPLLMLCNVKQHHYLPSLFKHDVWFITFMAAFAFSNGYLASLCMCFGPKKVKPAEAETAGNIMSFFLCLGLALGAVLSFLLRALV
Description: Increasing concentrations of the test compounds were incubated for 30 minutes with 0.5 mg neuronal membrane protein together with 0.5 nM [^3 H]-NBTI in a Tris buffer (pH 7.4) at room temperature. The assays were quenched and membranes collected by rapid filtration. Filters were then solubilized and radioactivity determined by scintillation counting.

[4] = system: Mouse bone marrow-derived mast cells; assay: Ribavirin: mast cell β-hexosaminidase release
[5] = system: granulocytes and endothelial cells; assay: Granulocyte/endothelial cell interaction, intravital microscopy of mesentery microvessels; assay type: in vivo, rat; conditions: superfusion with 20 μM, approximately 2 μM in the vessel
Description: The parameter measured was the fracture stress between the two cell types.
These studies were performed by intravital microscopy filming of granulocytes in rat mesentary microvessels. The rolling velocity of granulocytes compared to the streaming velocity of red cells was calculated before and after the administration of adenosine.

[6] = system: coronary endothelial cells; assay: Inhibition of adenosine utilization in cell culture; assay type: cell-based; conditions: Endothelial cell, 1 μM [3H] adenosine, 15 minutes
Description: In this assay, endothelial cells were incubated with 5 μM or 50 μM of the test compound together with 1 μM [^3H] adenosine for 15 minutes. Inhibition of adenosine utilization was determined by measuring the concentration of extracellular adenosine by scintillation counting following separation by thin layer chromatography (TLC).

[7] = system: platelet aggregation in human whole blood; assay: Inhibition of platelet aggregation in human whole blood; assay type: cell-based; conditions: Homo sapiens, Platelet, 10 min, 10 minutes at 37° C., 10 µM adenosine added, ADP (6-25 μM)
[8] = Oral bioavailability and half-life in fasted adult beagles; assay type: in vivo, dog; conditions: beagle, dog, in vivo
Description: Heparinized blood and urine were collected at selected intervals over 24 hours. Each sample was chilled, centrifuged at 4° C. and frozen prior to HPLC analysis.

demand-induced ischemia = assay: Canine model of stable angina (repeated pacing with LAD stenosis); assay type: in vivo, dog
Description: Anesthetized male dogs were instrumented to measure regional myocardial wall thickening during right atrial pacing in the presence of a stenosis of the left anterior descending artery (Young & Mullane Am. J. Physiol. in press (1991)). In Table XIA, the effects on wall thickening and arterial pressure of six repeated episodes of pacing in animals treated with a continuous IV infusion of 50 μg/kg/min of the test compound administered post-pace #1 are compared with saline-treated control animals.

T1 sequence (P56658 whole entry): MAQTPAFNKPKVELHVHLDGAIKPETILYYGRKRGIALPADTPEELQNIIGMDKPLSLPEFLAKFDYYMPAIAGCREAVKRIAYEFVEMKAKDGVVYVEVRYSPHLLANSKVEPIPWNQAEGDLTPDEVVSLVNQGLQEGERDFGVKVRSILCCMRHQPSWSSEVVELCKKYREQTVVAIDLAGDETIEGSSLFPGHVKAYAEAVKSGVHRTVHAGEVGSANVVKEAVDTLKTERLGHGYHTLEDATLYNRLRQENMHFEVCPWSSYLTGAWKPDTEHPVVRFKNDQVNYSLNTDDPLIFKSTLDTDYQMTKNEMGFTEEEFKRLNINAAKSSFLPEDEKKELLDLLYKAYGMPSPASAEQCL

Compound: NC(=O)c1ncn([C@@H]2O[C@H](COP(=O)(O)O)[C@@H](O)[C@H]2O)n1 [ribavirin monophosphate]
- AMP deaminase inhibited (AMP deaminase): 54%

Compound: CCCCO[C@@H]1[C@H](O)[C@@H](CO)O[C@H]1n1cnc(C(N)=O)c1N [32 (1-262), 5-amino-1-(2-O-n-butyl-β-D-ribofuranosyl)imidazole-4-carboxamide]
- IC50 [1]: 175 µM

Compound: NC(=O)c1ncn([C@@H]2O[C@H](COP(=O)(O)O)[C@@H](O)[C@H]2O)c1N [AICA ribotide]
- AMP deaminase inhibited (AMP deaminase): 38%

Compound: Nc1c(C(=O)NCc2ccccc2)ncn1[C@@H]1O[C@H](CO)[C@@H](O)[C@H]1O [Compound No. 11 (1-226), 5-Amino-1-beta-D-ribofuranosylimidazole-4-N-(benzyl)carboxamide]
- IC50 [2]: 200 µM
- Tissue Adenosine Levels (% Increase vs. Saline) (ischemic rat hearts; Expt 1): 53%
- Tissue Adenosine Levels (% Increase vs. Saline) (ischemic rat hearts; Expt 2): 45%
- effect in a gerbil model of brain ischemia (brain ischemia): demonstrated protective effects

Compound: Nc1c(C(=O)NC2CCCC2)ncn1C1OC(CO)C(O)C1O [Compound No. 10 (1-186), 5-Amino-1-beta-D-ribofuranosylimidazole-4-N-(cyclopentyl)carboxamide]
- EC50 [3]: 350 µM
- effect in a gerbil model of brain ischemia (brain ischemia): demonstrated protective effects
- melting point: 158 to 160 °C

Compound: NC(=O)c1ncn([C@@H]2O[C@H](CO)[C@@H](O)[C@H]2O)n1 [ribavirin, 1-β-D-ribofuranosyl-1H-1,2,4-triazole-3-carboxamide]
- mediator release ([4]; 1 μM for six days): inhibits mediator release significantly
- β-hexosaminidase release ([4]; 10 μM added at the time of mast cell stimulation): does not affect
- β-hexosaminidase release ([4]; three to seven days in 10 μM, washed, A23187 challenge): marked attenuation

Compound: Nc1ncnc2c1ncn2[C@@H]1O[C@H](CO)[C@@H](O)[C@H]1O [Adenosine, 9-β-D-ribofuranosyladenine]
- rolling velocity of granulocytes in microvessels [5]: twofold increase

Compound: NC[C@H]1O[C@@H](n2cnc(C(=O)NCc3ccc(Cl)cc3)c2N)[C@H](O)[C@@H]1O [Compound No. 53 (1-468), 5-Amino-1-(5-amino-5-deoxy-β-D-ribofuranosyl)imidazole-4-N-[(4-chlorophenyl)methyl]carboxamide Hydrochloride]
- IC50 ([2]; Cavia porcellus): 70 µM
- inhibition at 5 µM ([6]; 5 μM): 34 ± 4%
- inhibition at 50 µM ([6]; 50 μM): 58 ± 2%
- EC50 [3]: ~100 µM
- IC50 [7]: 150 µM
- half-life [8]: 5.61 h
- bioavailability ([8]; po, 10 mg/kg IV bolus and 20 mg/kg via stomach tube, read-out: Absolute Oral Bioavailability %): 32 ± 11%
- Heart Rate (demand-induced ischemia; Baseline): 143 ± 6 beats/min
- Mean Arterial Pressure (demand-induced ischemia; Baseline): 86 ± 5 mm Hg
- % of NON-ISCHEMIC WALL THICKENING (demand-induced ischemia; Pace # 1 (before infusion), 50 μg/kg/min IV post-pace #1): 49.5 ± 6.5%
- % of NON-ISCHEMIC WALL THICKENING (demand-induced ischemia; Pace # 2): 46.7 ± 7.0%
- % of NON-ISCHEMIC WALL THICKENING (demand-induced ischemia; Pace # 3): 54.2 ± 9.4 %
- % of NON-ISCHEMIC WALL THICKENING (demand-induced ischemia; Pace # 4): 48.1 ± 7.6 %
- % of NON-ISCHEMIC WALL THICKENING (demand-induced ischemia; Pace # 5): 47.5 ± 8.2 %
- % of NON-ISCHEMIC WALL THICKENING (demand-induced ischemia; Pace # 6): 42.1 ± 7.0 %
- Heart Rate, Change from Baseline (demand-induced ischemia; Post Pace Rest Period 1): 1 ± 2 beats/min
- Mean Arterial Pressure, Change from Baseline (demand-induced ischemia; Post Pace Rest Period 1): −1 ± 3 mm Hg
- Heart Rate, Change from Baseline (demand-induced ischemia; Post Pace Rest Period 2): −2 ± 4 beats/min
- Mean Arterial Pressure, Change from Baseline (demand-induced ischemia; Post Pace Rest Period 2): −2 ± 3 mm Hg
- Heart Rate, Change from Baseline (demand-induced ischemia; Post Pace Rest Period 3): −1 ± 3 beats/min
- Mean Arterial Pressure, Change from Baseline (demand-induced ischemia; Post Pace Rest Period 3): −8 ± 3 mm Hg
- Heart Rate, Change from Baseline (demand-induced ischemia; Post Pace Rest Period 4): 2 ± 4 beats/min
- Mean Arterial Pressure, Change from Baseline (demand-induced ischemia; Post Pace Rest Period 4): −7 ± 3 mm Hg
- Heart Rate, Change from Baseline (demand-induced ischemia; Post Pace Rest Period 5): 1 ± 4 beats/min
- Mean Arterial Pressure, Change from Baseline (demand-induced ischemia; Post Pace Rest Period 5): −8 ± 3 mm Hg
- Heart Rate, Change from Baseline (demand-induced ischemia; Post Pace Rest Period 6): 2 ± 4 beats/min
- Mean Arterial Pressure, Change from Baseline (demand-induced ischemia; Post Pace Rest Period 6): −7 ± 3 mm Hg
